Measured values from US20230107642A1 (Erasca, Inc., priority 2020, published 2023).

target: T1, K-Ras G12C (Homo sapiens, UniProt P01116, G12C); assay: CAF assay (% CAF; method in Example 7, not in this part); format: binding; settings: 10 uM, 60 min; Table 2a
T1 construct: This protein contained 188 amino acids in total, including an N-terminal 6-Histidine tag; made in house; host or cells: E. coli BL21

For `C=CC(=O)N1CCN(c2nc(=O)n3c4c(c(-c5ccc(F)cc5F)c(Cl)cc24)S(=O)(=O)CC3)[C@@H](C)C1` [Example 190, 7-((S)-4-acryloyl-2-methylpiperazin-1-yl)-9-chloro-10-(2,4-difluorophenyl)-2,3-dihydro-5H-[1,4]thiazino[2,3,4-ij]quinazolin-5-one 1,1-dioxide], the “% CAF 10 uM @ 60 min” value was 88.8%.

same assay, conditions: 10 uM, 1 h; Table 3

Going from `C=CC(=O)N1CCN(c2nc(=O)n3c4c(c(-c5ccc(F)cc5F)c(Cl)cc24)SCC3)CC1` [Example 164, 7-(4-acryloylpiperazin-1-yl)-9-chloro-10-(2,4-difluorophenyl)-2,3-dihydro-5H-[1,4]thiazino[2,3,4-ij]quinazolin-5-one] to `C=CC(=O)N1CCN(c2nc(=O)n3c4c(c(-c5ccc(F)cc5F)c(Cl)cc24)SCC3)CC1=O` [Example 166, 7-(4-acryloyl-3-oxopiperazin-1-yl)-9-chloro-10-(2,4-difluorophenyl)-2,3-dihydro-5H-[1,4]thiazino[2,3,4-ij]quinazolin-5-one], the “% CAF @ 10 uM, 1h” value falls from 95.1% to 65.5%.

Going from `C=CC(=O)N1C2CC1CN(c1nc(=O)n3c4c(c(-c5ccc(F)cc5F)c(Cl)cc14)SCC3)C2` [Example 165, 7-(6-acryloyl-3,6-diazabicyclo[3.1.1]heptan-3-yl)-9-chloro-10-(2,4-difluorophenyl)-2,3-dihydro-5H-[1,4]thiazino[2,3,4-ij]quinazolin-5-one] to `C=CC(=O)N1C2COCC1CN(c1nc(=O)n3c4c(c(-c5ccc(F)cc5F)c(Cl)cc14)SCC3)C2` [Example 182, 7-(9-acryloyl-3-oxa-7,9-diazabicyclo[3.3.1]nonan-7-yl)-9-chloro-10-(2,4-difluorophenyl)-2,3-dihydro-5H-[1,4]thiazino[2,3,4-ij]quinazolin-5-one], the “% CAF @ 10 uM, 1h” value rises from 16.9% to 94.4%.

Going from `C=CC(=O)N1CCN(c2nc(=O)n3c4c(c(-c5ccccc5C(F)(F)F)c(Cl)cc24)SCC3)[C@@H](C)C1` [Example 167, 7-((S)-4-acryloyl-2-methylpiperazin-1-yl)-9-chloro-10-(2-(trifluoromethyl)phenyl)-2,3-dihydro-5H-[1,4]thiazino[2,3,4-ij]quinazolin-5-one] to `C=CC(=O)N1CCN(c2nc(=O)n3c4c(c(-c5cccc(Cl)c5F)c(Cl)cc24)SCC3)[C@@H](C)C1` [Example 174, 7-((S)-4-acryloyl-2-methylpiperazin-1-yl)-9-chloro-10-(3-chloro-2-fluorophenyl)-2,3-dihydro-5H-[1,4]thiazino[2,3,4-ij]quinazolin-5-one], the “% CAF @ 10 uM, 1h” value rises from 69.8% to 93.8%.

Compared with `C=CC(=O)N1CCN(c2nc(=O)n3c4c(c(-c5c(O)cccc5F)c(Cl)cc24)SCC3)[C@@H](C)C1` [Example 168, 7-((S)-4-acryloyl-2-methylpiperazin-1-yl)-9-chloro-10-(2-fluoro-6-hydroxyphenyl)-2,3-dihydro-5H-[1,4]thiazino[2,3,4-ij]quinazolin-5-one], `C=CC(=O)N1CCN(c2nc(=O)n3c4c(c(-c5c(F)cccc5F)c(Cl)cc24)SCC3)[C@@H](C)C1` [Example 170, (S)-7-(4-acryloyl-2-methylpiperazin-1-yl)-9-chloro-10-(2,6-difluorophenyl)-2,3-dihydro-5H-[1,4]thiazino[2,3,4-ij]quinazolin-5-one] is higher in “% CAF @ 10 uM, 1h” value: 30.6% for the first, 75.9% for the second.

First: C=CC(=O)N1CCN(c2nc(=O)n3c4c(c(-c5ccc(F)cc5F)c(Cl)cc24)SCC3)[C@@H](CN2CCC2)C1 [Example 169, 7-((S)-4-acryloyl-2-(azetidin-1-ylmethyl)piperazin-1-yl)-9-chloro-10-(2,4-difluorophenyl)-2,3-dihydro-5H-[1,4]thiazino[2,3,4-ij]quinazolin-5-one]
Second: C=CC(=O)N1CCN(c2nc(=O)n3c4c(c(-c5ccc(F)cc5F)c(Cl)cc24)SCC3)[C@@H](C)C1 [Example 179, (S)-7-((S)-4-acryloyl-2-methylpiperazin-1-yl)-9-chloro-10-(2,4-difluorophenyl)-2,3-dihydro-5H-[1,4]thiazino[2,3,4-ij]quinazolin-5-one]
The “% CAF @ 10 uM, 1h” value of the first is lower: 23.3% for the first, 96% for the second.

First: C=CC(=O)N1CCN(c2nc(=O)n3c4c(c(-c5cc(Cl)ccc5Cl)c(Cl)cc24)SCC3)[C@@H](C)C1 [Example 171, 7-((S)-4-acryloyl-2-methylpiperazin-1-yl)-9-chloro-10-(2,5-dichlorophenyl)-2,3-dihydro-5H-[1,4]thiazino[2,3,4-ij]quinazolin-5-one]
Second: C=CC(=O)N1CCN(c2nc(=O)n3c4c(c(-c5cc(Cl)ccc5F)c(Cl)cc24)SCC3)[C@@H](C)C1 [Example 175, 7-((S)-4-acryloyl-2-methylpiperazin-1-yl)-9-chloro-10-(5-chloro-2-fluorophenyl)-2,3-dihydro-5H-[1,4]thiazino[2,3,4-ij]quinazolin-5-one]
The “% CAF @ 10 uM, 1h” value of the first is lower: 48.9% for the first, 79.8% for the second.

First: C=CC(=O)N1CCN(c2nc(=O)n3c4c(c(-c5ccc(F)cc5F)c(Cl)cc24)SCC3)[C@@H](C#N)C1 [Example 173, (2R)-4-acryloyl-1-(9-chloro-10-(2,4-difluorophenyl)-5-oxo-2,3-dihydro-5H-[1,4]thiazino[2,3,4-ij]quinazolin-7-yl)piperazine-2-carbonitrile]
Second: C=CC(=O)N1CCN(c2nc(=O)n3c4c(c(-c5ccc(F)cc5F)c(Cl)cc24)SCC3)[C@@H](C)C1 [Example 193, 7-((S)-4-acryloyl-2-methylpiperazin-1-yl)-9-chloro-10-(2,4-difluorophenyl)-2,3-dihydro-5H-[1,4]thiazino[2,3,4-ij]quinazolin-5-one]
The “% CAF @ 10 uM, 1h” value of the first is lower: 2.2% for the first, 97% for the second.

Going from `C=C(F)C(=O)N1CCN(c2nc(=O)n3c4c(c(-c5ccc(F)cc5F)c(Cl)cc24)SCC3)C[C@@H]1CC#N` [Example 176, 2-((2S)-4-(9-chloro-10-(2,4-difluorophenyl)-5-oxo-2,3-dihydro-5H-[1,4]thiazino[2,3,4-ij]quinazolin-7-yl)-1-(2-fluoroacryloyl)piper-azin-2-yl)acetonitrile] to `C=CC(=O)N1CCN(c2nc(=O)n3c4c(c(-c5ccc(F)cc5F)c(Cl)cc24)SCC3)C[C@@H]1CS(C)(=O)=O` [Example 186, 7-((R)-4-acryloyl-3-((methylsulfonyl)methyl)piperazin-1-yl)-9-chloro-10-(2,4-difluorophenyl)-2,3-dihydro-5H-[1,4]thiazino[2,3,4-ij]quinazolin-5-one], the “% CAF @ 10 uM, 1h” value rises from 40.5% to 92.6%.

First: C=CC(=O)N1CC2CCC1CN2c1nc(=O)n2c3c(c(-c4ccc(F)cc4F)c(Cl)cc13)SCC2 (stereo not drawn) [Example 181, 7-(5-acryloyl-2,5-diazabicyclo[2.2.2]octan-2-yl)-9-chloro-10-(2,4-difluorophenyl)-2,3-dihydro-5H-[1,4]thiazino[2,3,4-ij]quinazolin-5-one]
Second: C=CC(=O)N1C[C@H](C)N(c2nc(=O)n3c4c(c(-c5ccc(F)cc5F)c(Cl)cc24)SCC3)C[C@H]1C [Example 189, 7-((2S,5R)-4-acryloyl-2,5-dimethylpiperazin-1-yl)-9-chloro-10-(2,4-difluorophenyl)-2,3-dihydro-5H-[1,4]thiazino[2,3,4-ij]quinazolin-5-one]
The “% CAF @ 10 uM, 1h” value of the first is lower: 28.7% for the first, 93.8% for the second.

Going from `C=CC(=O)N1C[C@H](C)N(c2nc(=O)n3c4c(c(-c5ccc(F)cc5F)c(Cl)cc24)S(=O)(=O)CC3)C[C@H]1C` [Example 184, 7-((2S,5R)-4-acryloyl-2,5-dimethylpiperazin-1-yl)-9-chloro-10-(2,4-difluorophenyl)-2,3-dihydro-5H-[1,4]thiazino[2,3,4-ij]quinazolin-5-one 1,1-dioxide] to `C=CC(=O)N1CCN(c2nc(=O)n3c4c(c(-c5ccc(F)cc5F)c(Cl)cc24)S(=O)(=O)CC3)[C@@H](C)C1` [Example 190, 7-((S)-4-acryloyl-2-methylpiperazin-1-yl)-9-chloro-10-(2,4-difluorophenyl)-2,3-dihydro-5H-[1,4]thiazino[2,3,4-ij]quinazolin-5-one 1,1-dioxide], the “% CAF @ 10 uM, 1h” value falls from 91.4% to 88.2%.

First: C=CC(=O)N1CCN(c2nc(=O)n3c4c(c(-c5ccc(F)cc5F)c(Cl)cc24)SCC3)[C@@H](CS(C)(=O)=O)C1 [Example 185, 7-((R)-4-acryloyl-2-((methylsulfonyl)methyl)piperazin-1-yl)-9-chloro-10-(2,4-difluorophenyl)-2,3-dihydro-5H-[1,4]thiazino[2,3,4-ij]quinazolin-5-one]
Second: C=CC(=O)N1CCN(c2nc(=O)n3c4c(c(-c5ccc(F)cc5F)c(Cl)cc24)SCC3)[C@H](CS(C)(=O)=O)C1 [Example 188, 7-((S)-4-acryloyl-2-((methylsulfonyl)methyl)piperazin-1-yl)-9-chloro-10-(2,4-difluorophenyl)-2,3-dihydro-5H-[1,4]thiazino[2,3,4-ij]quinazolin-5-one]
The “% CAF @ 10 uM, 1h” value of the first is higher: 93.3% for the first, 89.2% for the second.

Going from `C=CC(=O)N1CCN(c2nc(=O)n3c4c(c(-c5ccc(F)cc5F)c(Cl)cc24)SCC3)C[C@H]1CS(C)(=O)=O` [Example 187, 7-((S)-4-acryloyl-3-((methylsulfonyl)methyl)piperazin-1-yl)-9-chloro-10-(2,4-difluorophenyl)-2,3-dihydro-5H-[1,4]thiazino[2,3,4-ij]quinazolin-5-one] to `C=CC(=O)N1CCN(c2nc(=O)n3c4c(c(-c5ccc(F)cc5F)c(Cl)cc24)[S@@+]([O-])CC3)[C@@H](C)C1` [Example 191, 7-((S)-4-acryloyl-2-methylpiperazin-1-yl)-9-chloro-10-(2,4-difluorophenyl)-2,3-dihydro-5H-[1,4]thiazino[2,3,4-ij]quinazolin-5-one 1-oxide], the “% CAF @ 10 uM, 1h” value falls from 83.7% to 26.6%.

`C=CC(=O)N1CCN(c2nc(=O)n3c4c(c(-c5ccc(F)cc5F)c(Cl)cc24)[S@+]([O-])CC3)[C@@H](C)C1` [Example 192, 7-((S)-4-acryloyl-2-methylpiperazin-1-yl)-9-chloro-10-(2,4-difluorophenyl)-2,3-dihydro-5H-[1,4]thiazino[2,3,4-ij]quinazolin-5-one 1-oxide] was tested, and the “% CAF @ 10 uM, 1h” value was 62.4%.

same assay, conditions: 10 μM, 1 h; Table 4

With `C=CC(=O)N1C2CC(=O)CC1CN(c1nc(=O)n3c4c(c(-c5ccc(F)cc5F)c(C(F)(F)F)cc14)OCCC3)C2` [Example 338, 8-(9-acryloyl-7-oxo-3,9-diazabicyclo[3.3.1]nonan-3-yl)-11-(2,4-difluorophenyl)-10-(trifluoromethyl)-3,4-dihydro-2H,6H-[1,4]oxazepino[2,3,4-ij]quinazolin-6-one] the “% CAF @ 10 μM, 1 h” value was 95.3%.
